Here are results for three molecules from US20210369787A1, “ADIPOCYTE MEDIATED DELIVERY OF ANTICANCER THERAPEUTICS” (NORTH CAROLINA STATE UNIVERSITY, priority 2018, published 2021).

The subject of series [1] is B16F10 cells. The series can be described thus: Transwell co-culture of loaded adipocytes with B16F10, MTT. Format: cell-based, mouse. On the procedure: Cytotoxicity of drug and fatty acid was determined by MTT assay in 96-well plate after 48 h. Tumor cell killing or promoting effect of drug or fatty acid loaded adipocytes was determined in a transwell system where adipocytes were seeded in the 24 well plate and tumor cells grew in the transwell insert. After culturing for 72 h, cell proliferation of cancer cells in the transwell insert was determined by MTT assay.
(§1) For Western blot, flow cytometry, and adipokine profiling (R&D Systems catalog no. ARY013), 6 well transwell system was used with cancer cells cultured in the transwell insert and adipocytes in the bottom. Cells or medium were analyzed after co-culturing for 72 h. To determine the role of FABP4 during the crosstalk, 30 μM BMS309403 was added in the medium to block FABP4. Antibodies used for Western blot included β-actin (catalog no. sc-47778, Santa Cruz), FABP4 (catalog no. 701158, Thermo Fisher), PD-L1 (catalog no. ab205921, Abcam). PE channel was used to determine pDox fluorescence in adipocytes and cancer cells.

Another series has as its system PD-L1. The series can be described thus: PD-L1 expression of B16F10 in transwell system, Western blot. It is filed as cell-based, mouse. Here is the method: as §1
(In general: In western blotting, separated proteins are transferred to a membrane and probed.)

Series [2] concerns B16F10 cells. The series can be described thus: pDox uptake and transport from adipocytes to B16F10 in transwell, flow cytometry. Format: cell-based, mouse. On the procedure:
as §1

Series [3] relates to FABP4. Kind of series: FABP4 amount in B16F10 cells after transwell co-culture, Western blot. Format: cell-based, mouse. On the procedure:
as §1

Series [4] deals with 3T3-L1 cell-differentiated adipocytes. Kind of series: Lipid accumulation in adipocytes, Oil Red O staining. It is filed as cell-based. The note with it: for lipid accumulation in adipocytes: added during 3T3-L1 differentiation, oil red staining. Here is the method: Lipid accumulation in adipocytes was evaluated by Oil Red 0 staining and quantified by optical density measurement at 540 nm. Preadipocytes were cultured, differentiated, and drug encapsulated in 6-well transwell insert, and co-cultured with 5*10^5 pre-cultured B16F10 or fibroblasts in 6 well plate to determine drug release profiles, which was calculated according to drug amount remained in adipocytes. Concentration of free fatty acid in co-cultured medium was measured using Free Fatty Acid Quantitation Kit (Sigma-Aldrich, catalog no. MAK044). […] Then, 100 μL extraction solution (0.75 M HCl in isopropanol) was added and incubated at −20° C. overnight. The fluorescence of supernatant at 498(excitation)/591(emission) nm was measured after centrifugation at 20000 g for 15 min. The maintenance medium was changed three to four times for animal work.

The target in series [5] is FABP4 (Homo sapiens, UniProt P15090). The series can be described thus: Fluorescence polarization binding of Dox or pDox to FABP4. On the procedure: Fluorescence polarization was measured using QuantaMaster 40 UV/VIS Steady State Spectrofluorometer (Photon Technology International). The dissociation constant (Kd) was calculated for each by fitting the observed polarization ([mP]) to a general equation for two state binding as previously described.2
For orientation: In fluorescence polarisation assays a small probe gives low polarisation when free and higher when bound to something large.

The structures appear in SMILES notation.

FABP4 (Homo sapiens, UniProt P15090), sequence (P15090 whole entry, species assumed): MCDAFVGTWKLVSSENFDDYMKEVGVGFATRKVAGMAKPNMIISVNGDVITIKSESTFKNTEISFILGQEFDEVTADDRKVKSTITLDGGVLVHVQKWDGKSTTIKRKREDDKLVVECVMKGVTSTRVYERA

For the molecule `CCc1c(-c2ccccc2)c(-c2ccccc2)nn1-c1ccccc1-c1cccc(OCC(=O)O)c1` [BMS309403], the “effect on cytotoxicity of pDox from adipocytes to B16F10 cells” value in the series with B16F10 cells [1] (BMS309403 added to transwell medium (30 μM)) was “partially reversed”. The “effect on cell killing by pDox+RA@adipocytes” value in the series with B16F10 cells [1] (FABP4 inhibitor in transwell medium) is recorded as “partially reversed”. In addition, the “effect on PD-L1 suppression by RA@adipocytes and CLA@adipocyte” value in the series on PD-L1 is “partially reversed”. For the same molecule, the “effect on uptake of pDox in adipocytes” value in the series with B16F10 cells [2] (during pDox absorption) is “did not affect”. Besides, the “effect on RA@adipocyte-promoted pDox uptake” value in the series with B16F10 cells [2] (transwell co-culture) is recorded as “inhibited”. In the series with B16F10 cells [2] (transwell, flow cytometry), the “effect on transportation of pDox from adipocytes to B16F10 cells” value is “partially inhibited”. Besides, the “effect on adipocyte-induced rise of FABP4 in B16F10 cells” value in the series on FABP4 [3] is “inhibit”.
As to `CCCCCC/C=C/C=C\CCCCCCCC(=O)O` [RA, 9Z, 11E-conjugated linoleic acid], the “effect on inhibition of lipid droplet formation by Dox and pDox” value in series [4] (RA added during differentiation) is “partially reversed”. Further, the “lipid accumulation in adipocytes” value in series [4] was “enhance lipid accumulation”.
Regarding `COc1cccc2c1C(=O)c1c(O)c3c(c(O)c1C2=O)C[C@@](O)(C(=O)CO)C[C@@H]3O[C@H]1C[C@H](N)[C@H](O)[C@H](C)O1` [Dox, doxorubicin], at FABP4 [5], the “specific binding to FABP4” value is on record as “almost no specific binding”. For the same molecule, the “lipid accumulation in adipocytes” value in series [4] was “significantly inhibited”.
